Results published in ChEMBL document CHEMBL1765080, “Synthesis, biological evaluation and molecular modeling of novel triazole-containing berberine derivatives as acetylcholinesterase and β-amyloid aggregation inhibitors” (Bioorg Med Chem, 2011).

Experiments:
[1] = Ratio of IC50 for equine serum Butyrylcholinesterase to IC50 for electric eel Acetylcholinesterase
Acetylcholinesterase = Acetylcholinesterase (Electrophorus electricus, UniProt O42275); assay: Inhibition of electric eel Acetylcholinesterase
Butyrylcholinesterase = Butyrylcholinesterase (Equus caballus, UniProt Q9N1N9); assay: Inhibition of equine serum Butyrylcholinesterase
[2] = Inhibition of amyloid-beta (1 to 42) aggregation at 20 uM after 48 hrs by fluorescence analysis using thioflavin T

Acetylcholinesterase, sequence (O42275 whole entry): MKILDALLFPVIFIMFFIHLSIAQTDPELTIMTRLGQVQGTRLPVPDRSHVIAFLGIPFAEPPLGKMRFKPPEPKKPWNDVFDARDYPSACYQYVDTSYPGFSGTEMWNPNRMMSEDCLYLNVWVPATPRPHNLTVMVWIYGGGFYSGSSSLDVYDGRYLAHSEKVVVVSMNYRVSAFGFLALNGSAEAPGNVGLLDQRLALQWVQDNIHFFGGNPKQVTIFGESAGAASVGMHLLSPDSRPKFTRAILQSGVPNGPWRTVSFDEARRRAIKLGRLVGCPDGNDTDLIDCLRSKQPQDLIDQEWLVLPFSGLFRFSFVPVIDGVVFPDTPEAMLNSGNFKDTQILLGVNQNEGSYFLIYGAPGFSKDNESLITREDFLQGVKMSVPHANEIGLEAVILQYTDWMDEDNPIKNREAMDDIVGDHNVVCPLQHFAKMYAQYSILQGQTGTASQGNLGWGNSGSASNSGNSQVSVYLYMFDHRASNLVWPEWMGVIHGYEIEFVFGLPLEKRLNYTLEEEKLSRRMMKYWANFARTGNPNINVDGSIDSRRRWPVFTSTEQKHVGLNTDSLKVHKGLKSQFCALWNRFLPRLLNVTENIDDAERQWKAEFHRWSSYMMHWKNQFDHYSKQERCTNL
Butyrylcholinesterase, sequence (Q9N1N9 whole entry): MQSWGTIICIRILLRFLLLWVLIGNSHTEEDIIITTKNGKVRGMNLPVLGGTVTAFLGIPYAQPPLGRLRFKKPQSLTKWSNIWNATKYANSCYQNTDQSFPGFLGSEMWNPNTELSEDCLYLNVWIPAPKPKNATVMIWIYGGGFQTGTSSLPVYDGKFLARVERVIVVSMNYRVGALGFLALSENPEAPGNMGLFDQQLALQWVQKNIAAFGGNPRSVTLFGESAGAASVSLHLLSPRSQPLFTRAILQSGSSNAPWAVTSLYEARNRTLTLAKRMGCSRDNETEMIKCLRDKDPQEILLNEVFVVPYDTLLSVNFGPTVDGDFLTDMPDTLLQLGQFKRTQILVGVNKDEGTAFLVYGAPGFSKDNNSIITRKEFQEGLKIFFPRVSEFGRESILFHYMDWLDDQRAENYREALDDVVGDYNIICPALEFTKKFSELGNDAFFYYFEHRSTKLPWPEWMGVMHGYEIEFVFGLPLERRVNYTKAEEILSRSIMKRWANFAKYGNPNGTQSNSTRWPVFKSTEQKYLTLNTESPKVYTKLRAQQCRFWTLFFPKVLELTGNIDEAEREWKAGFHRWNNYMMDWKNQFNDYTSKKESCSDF

CCCCc1cn(CCCOc2c(OC)ccc3cc4[n+](cc23)CCc2cc3c(cc2-4)OCO3)nn1
Ratio IC50 [1]: 24.6
IC50 (Acetylcholinesterase): 165 nM
IC50 (Butyrylcholinesterase): 4060 nM

CCCCc1cn(CCCCOc2c(OC)ccc3cc4[n+](cc23)CCc2cc3c(cc2-4)OCO3)nn1
inhibition [2]: 77.9%
Ratio IC50 [1]: 10
IC50 (Acetylcholinesterase): 201 nM
IC50 (Butyrylcholinesterase): 2020 nM

COc1ccc2cc3[n+](cc2c1OCCCn1cc(-c2ccccc2)nn1)CCc1cc2c(cc1-3)OCO2
Ratio IC50 [1]: 7.13
IC50 (Acetylcholinesterase): 310 nM
IC50 (Butyrylcholinesterase): 2210 nM

CCCN(CCC)c1cn(CCCOc2c(OC)ccc3cc4[n+](cc23)CCc2cc3c(cc2-4)OCO3)nn1
Ratio IC50 [1]: 11.3
IC50 (Acetylcholinesterase): 140 nM
IC50 (Butyrylcholinesterase): 1580 nM

COc1ccc2cc3[n+](cc2c1OC)CCc1cc2c(cc1-3)OCO2
inhibition [2]: 36.3%

CCCN(CCC)c1cn(CCCCOc2c(OC)ccc3cc4[n+](cc23)CCc2cc3c(cc2-4)OCO3)nn1
inhibition [2]: 62.5%
Ratio IC50 [1]: 17.7
IC50 (Acetylcholinesterase): 270 nM
IC50 (Butyrylcholinesterase): 4770 nM

CCCCN(CCCC)c1cn(CCCCOc2c(OC)ccc3cc4[n+](cc23)CCc2cc3c(cc2-4)OCO3)nn1
inhibition [2]: 71.7%
Ratio IC50 [1]: 11.6
IC50 (Acetylcholinesterase): 469 nM
IC50 (Butyrylcholinesterase): 5460 nM

CCCCN(CCCC)c1cn(CCCOc2c(OC)ccc3cc4[n+](cc23)CCc2cc3c(cc2-4)OCO3)nn1
Ratio IC50 [1]: 8.48
IC50 (Acetylcholinesterase): 243 nM
IC50 (Butyrylcholinesterase): 2060 nM

COc1ccc2cc3[n+](cc2c1OCCCCn1cc(-c2ccccc2)nn1)CCc1cc2c(cc1-3)OCO2
inhibition [2]: 60.6%
Ratio IC50 [1]: 1.14
IC50 (Acetylcholinesterase): 1320 nM
IC50 (Butyrylcholinesterase): 1500 nM
